Assay results: the supplement of paper PMC10307832

Experiments:
Test in all cases: relative viability (nuclei count vs DMSO), 5 days (fraction); higher = more cells survive
[1] = compound: CC1=CN2C(=O)C=C(N=C2C(=C1)C(C)NC3=CC=CC=C3)N4CCOCC4 [TGX 221] + Nc1ncn([C@H]2C[C@H](O)[C@@H](CO)O2)c(=O)n1 [Decitabine] (partner 2 µM)
In short: (§1)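 For relative viability, nuclei counts in treated wells were divided by those in vehicle wells. Lung cancer cell lines had been pin-tool dosed in 1536-well plates the day after seeding and cultured for 5 days, then fixed and stained in one step (final 0.05% Triton X-100, 1% formaldehyde, 1 ug/ml Hoechst) and imaged at 4×. Doses were one drug alone or a fixed anchor-drug dose plus five library-drug doses (not always all listed) in √10 steps, and values are duplicate-plate medians.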

[2] = compound: C1=CC=C(C(=C1)C2=CC=C(C=C2)C3=CSC4=C3C(=C(C(=O)N4)C#N)O)O + C[C@@H](Oc1cc(-c2cnn(C3CCNCC3)c2)cnc1N)c1c(Cl)ccc(F)c1Cl [Crizotinib] (partner 1 µM)
In short: as §1

[3] = compound: O=C(CCCCCCNC(=O)c1cnc(N(c2ccccc2)c2ccccc2)nc1)NO [Ricolinostat] + CCNC(=O)c1noc(-c2cc(C(C)C)c(O)cc2O)c1-c1ccc(CN2CCOCC2)cc1 [Luminespib] (partner 0.01 µM)
In short: as §1

[4] = compound: C1=CC=C(C(=C1)C2=CC=C(C=C2)C3=CSC4=C3C(=C(C(=O)N4)C#N)O)O + CC(C)C[C@H](NC(=O)[C@H](Cc1ccccc1)NC(=O)c1cnccn1)B(O)O [Bortezomib] (partner 0.002 µM)
In short: as §1

Cell Line | relative viability ([1]; first compound 0.08 µM) | relative viability ([1]; first compound 0.253 µM) | relative viability ([1]; first compound 0.8 µM) | relative viability ([1]; first compound 2.53 µM) | relative viability ([1]; first compound 8 µM) | relative viability ([2]; first compound 0.08 µM) | relative viability ([2]; first compound 0.253 µM) | relative viability ([2]; first compound 0.8 µM) | relative viability ([2]; first compound 2.53 µM) | relative viability ([2]; first compound 8 µM) | relative viability ([3]; first compound 0.08 µM) | relative viability ([3]; first compound 0.253 µM) | relative viability ([3]; first compound 0.8 µM) | relative viability ([3]; first compound 2.53 µM) | relative viability ([4]; first compound 0.08 µM) | relative viability ([4]; first compound 0.253 µM) | relative viability ([4]; first compound 0.8 µM) | relative viability ([4]; first compound 2.53 µM) | relative viability ([4]; first compound 8 µM)
201T | 0.831 | 0.85 | 0.844 | 0.871 | 0.873 | 0.992 | 1.08 | 1.06 | 1.01 | 1.11 | 0.94 | 1.04 | 1.09 | 1.08 | 1.09 | 1.13 | 1.14 | 1.09 | 1.13
A549 | 0.337 | 0.25 | 0.294 | 0.26 | 0.349 | 0.493 | 0.998 | 0.688 | 0.885 | 0.55 |  |  |  |  |  |  |  |  | 
A-427 | 0.548 | 0.55 | 0.558 | 0.594 | 0.519 | 0.905 | 1.08 | 0.998 | 1.05 | 0.988 |  | 0.81 | 0.605 | 0.698 | 0.963 | 1.05 | 1.02 | 1.03 | 1.06
CAL-12T |  |  |  |  |  |  | 0.789 | 0.441 | 0.739 | 0.485 | 0.497 | 0.378 | 0.542 | 0.303 |  | 0.898 | 0.911 | 0.936 | 0.804
Calu-6 |  |  |  |  |  | 0.614 | 0.967 | 0.726 | 0.863 | 0.635 |  |  |  |  | 1.18 | 1.14 | 1.26 | 1.06 | 0.971
EBC-1 |  |  |  |  |  | 0.202 | 0.21 | 0.19 | 0.199 | 0.191 |  |  |  |  | 0.629 | 0.435 | 0.489 | 0.598 | 0.509
HCC-78 | 0.589 | 0.736 | 0.699 | 0.693 | 0.68 | 0.374 | 0.423 | 0.443 | 0.343 | 0.3 |  |  |  |  | 0.529 | 0.771 | 0.536 | 0.417 | 0.428
HCC-366 | 0.333 | 0.305 | 0.345 | 0.344 | 0.365 | 0.245 | 0.779 | 0.614 | 0.599 | 0.285 |  |  |  |  | 1.04 | 1.14 | 1.34 | 0.682 | 0.642
IA-LM |  |  |  |  |  | 0.826 | 0.914 | 0.714 | 0.882 | 0.439 |  |  |  |  | 0.672 | 1.13 | 0.879 | 1.01 | 0.58
LK-2 | 0.341 | 0.308 | 0.25 | 0.296 | 0.307 |  |  | 0.236 | 0.21 | 0.296 | 0.18 | 0.191 | 0.168 | 0.177 |  |  |  |  | 
NCI-H358 | 0.22 | 0.216 | 0.209 | 0.181 | 0.203 | 0.59 | 0.478 | 0.718 | 0.516 | 0.553 |  | 0.269 | 0.482 | 0.254 |  |  |  |  | 
NCI-H522 | 0.717 | 0.624 | 0.696 | 0.587 | 0.64 |  |  |  |  |  | 1.39 | 1.01 | 1.28 | 1.19 |  |  |  |  | 
NCI-H1299 |  |  |  |  |  | 0.878 | 1.02 | 0.987 | 0.968 | 0.947 |  |  |  |  | 1.07 | 1.04 | 0.995 | 1 | 0.975
NCI-H1395 | 0.712 | 0.685 | 0.662 | 0.615 | 0.614 |  |  |  |  |  |  | 0.792 | 0.859 | 0.528 |  |  |  |  | 
NCI-H1563 |  |  |  |  |  | 0.736 | 0.862 | 0.884 | 0.904 | 0.858 | 0.553 | 0.502 | 0.508 | 0.525 | 0.543 | 0.953 | 0.909 | 0.785 | 0.759
NCI-H1623 |  |  |  |  |  |  |  |  |  |  | 0.481 | 0.517 | 0.541 | 0.523 |  |  |  |  | 
NCI-H1648 |  | 0.554 | 0.499 | 0.474 | 0.523 |  |  |  |  |  |  |  |  |  |  |  |  |  | 
NCI-H1703 |  |  |  |  |  | 0.452 | 0.811 | 0.827 | 0.844 | 0.56 |  |  |  |  | 0.28 | 0.395 | 0.289 | 0.301 | 0.38
NCI-H1793 | 0.442 | 0.369 | 0.479 | 0.381 | 0.37 |  |  |  |  |  |  | 0.15 | 0.171 | 0.145 |  |  |  |  | 
NCI-H1944 |  | 0.449 | 0.442 | 0.443 | 0.389 | 1.08 | 1.19 | 1.07 | 1.23 | 1.04 | 0.663 | 0.686 | 0.629 | 0.57 |  |  |  |  | 
NCI-H2170 | 0.403 | 0.464 | 0.441 | 0.438 | 0.495 | 1.13 | 1.34 | 1.25 | 1.28 | 0.888 | 0.616 | 0.717 | 0.661 | 0.953 |  |  |  |  | 
NCI-H2228 |  |  |  |  |  | 0.385 | 0.505 | 0.495 | 0.33 | 0.392 | 0.157 | 0.115 | 0.167 | 0.15 | 0.973 | 0.922 | 1.07 | 0.959 | 0.73
NCI-H2342 | 0.693 | 0.638 | 0.725 | 0.68 | 0.773 |  |  |  |  |  | 0.541 | 0.78 | 0.835 | 0.762 |  |  |  |  | 
SK-MES-1 | 0.397 | 0.365 | 0.373 | 0.395 | 0.36 | 1.05 | 1.05 | 0.905 | 1.05 | 0.951 | 0.84 | 0.865 | 0.609 | 0.757 |  |  |  |  | 
SW 900 |  | 0.406 | 0.466 | 0.42 | 0.351 |  |  |  |  |  | 0.166 | 0.164 | 0.183 | 0.17 |  |  |  |  | 
